Test results reported in the NIST ThermoML archive (doi:10.1016/j.fluid.2014.10.002).
Values joined by “and” are separate entries in the source; they are usually repeats but may differ in a detail not shown here. Identical values can stand only once. Numbers after ± are expanded uncertainties.

Conditions: Liquid, Vibrating wire viscometry

CCCCC(CC)COC(=O)c1ccc(C(=O)OCC(CC)CCCC)c(C(=O)OCC(CC)CCCC)c1 (stereo unspecified) [tris(2-ethylhexyl) trimellitate]
Conditions	viscosity
343.14 K, 49870 kPa	53.82 ± 1.4 mPa·s and 53.79 ± 1.4 mPa·s
343.14 K, 50340 kPa	53.74 ± 1.4 mPa·s
343.14 K, 50350 kPa	53.88 ± 1.4 mPa·s
343.14 K, 50360 kPa	53.81 ± 1.4 mPa·s and 53.95 ± 1.4 mPa·s and 53.91 ± 1.4 mPa·s
343.14 K, 65050 kPa	68.46 ± 1.5 mPa·s
343.14 K, 65060 kPa	68.25 ± 1.5 mPa·s
343.14 K, 65070 kPa	68.22 ± 1.5 mPa·s
343.14 K, 65080 kPa	68.37 ± 1.5 mPa·s
343.14 K, 65100 kPa	68.38 ± 1.5 mPa·s
343.15 K, 1040 kPa	22.81 ± 0.5 mPa·s
343.15 K, 1050 kPa	22.74 ± 0.5 mPa·s
343.15 K, 1060 kPa	22.78 ± 0.5 mPa·s
343.15 K, 1070 kPa	22.74 ± 0.5 mPa·s
343.15 K, 1090 kPa	22.81 ± 0.5 mPa·s
343.15 K, 2540 kPa	23.48 ± 0.49 mPa·s and 23.4 ± 0.5 mPa·s
343.15 K, 2580 kPa	23.42 ± 0.49 mPa·s
343.15 K, 4800 kPa	24.49 ± 0.52 mPa·s
343.15 K, 4820 kPa	24.51 ± 0.52 mPa·s
343.15 K, 4880 kPa	24.44 ± 0.52 mPa·s
343.15 K, 4900 kPa	24.44 ± 0.52 mPa·s and 24.52 ± 0.52 mPa·s and 24.43 ± 0.52 mPa·s
343.15 K, 7530 kPa	25.82 ± 0.54 mPa·s
343.15 K, 7590 kPa	25.76 ± 0.54 mPa·s
343.15 K, 7630 kPa	25.78 ± 0.54 mPa·s
343.15 K, 7650 kPa	25.77 ± 0.54 mPa·s
343.15 K, 10140 kPa	27.08 ± 0.57 mPa·s
343.15 K, 15040 kPa	29.65 ± 0.63 mPa·s and 29.63 ± 0.63 mPa·s
343.15 K, 15050 kPa	29.64 ± 0.63 mPa·s
343.15 K, 15060 kPa	29.74 ± 0.63 mPa·s
343.15 K, 15070 kPa	29.73 ± 0.63 mPa·s
343.15 K, 15090 kPa	29.74 ± 0.63 mPa·s
358.18 K, 2460 kPa	14.15 ± 0.3 mPa·s
358.18 K, 2470 kPa	14.13 ± 0.3 mPa·s
358.18 K, 2480 kPa	14.11 ± 0.3 mPa·s
358.18 K, 2490 kPa	14.11 ± 0.3 mPa·s
358.18 K, 2500 kPa	14.16 ± 0.3 mPa·s
358.18 K, 2530 kPa	14.14 ± 0.3 mPa·s
358.18 K, 4840 kPa	14.65 ± 0.31 mPa·s
358.18 K, 4860 kPa	14.68 ± 0.31 mPa·s
358.18 K, 4920 kPa	14.69 ± 0.31 mPa·s
358.18 K, 4960 kPa	14.64 ± 0.31 mPa·s
358.18 K, 4990 kPa	14.64 ± 0.31 mPa·s
358.18 K, 7360 kPa	15.35 ± 0.32 mPa·s
358.18 K, 7370 kPa	15.37 ± 0.32 mPa·s
358.18 K, 7390 kPa	15.35 ± 0.32 mPa·s
358.18 K, 7410 kPa	15.34 ± 0.32 mPa·s
358.18 K, 7420 kPa	15.37 ± 0.32 mPa·s and 15.38 ± 0.32 mPa·s
358.18 K, 10350 kPa	16.11 ± 0.34 mPa·s
358.18 K, 10380 kPa	16.12 ± 0.34 mPa·s
358.18 K, 10410 kPa	16.11 ± 0.34 mPa·s
358.18 K, 15320 kPa	17.52 ± 0.37 mPa·s
358.18 K, 20050 kPa	18.99 ± 0.4 mPa·s
358.18 K, 20070 kPa	19.03 ± 0.4 mPa·s and 18.97 ± 0.4 mPa·s
358.18 K, 20090 kPa	18.99 ± 0.4 mPa·s
358.18 K, 20120 kPa	18.99 ± 0.4 mPa·s
358.18 K, 20130 kPa	19.05 ± 0.4 mPa·s
358.18 K, 40240 kPa	26.25 ± 0.55 mPa·s
358.18 K, 40250 kPa	26.27 ± 0.55 mPa·s
358.18 K, 40260 kPa	26.24 ± 0.55 mPa·s
358.18 K, 40280 kPa	26.21 ± 0.55 mPa·s
358.18 K, 40290 kPa	26.24 ± 0.55 mPa·s
358.19 K, 1290 kPa	13.79 ± 0.3 mPa·s
358.19 K, 1330 kPa	13.79 ± 0.3 mPa·s
358.19 K, 1380 kPa	13.85 ± 0.3 mPa·s
358.19 K, 10470 kPa	16.13 ± 0.34 mPa·s
358.19 K, 15340 kPa	17.51 ± 0.37 mPa·s
358.19 K, 15360 kPa	17.51 ± 0.37 mPa·s
358.19 K, 15370 kPa	17.52 ± 0.37 mPa·s
358.19 K, 15390 kPa	17.53 ± 0.37 mPa·s
358.19 K, 15410 kPa	17.54 ± 0.37 mPa·s
358.19 K, 30310 kPa	22.42 ± 0.47 mPa·s
358.19 K, 30360 kPa	22.4 ± 0.5 mPa·s
358.19 K, 30380 kPa	22.43 ± 0.47 mPa·s and 22.47 ± 0.47 mPa·s and 22.46 ± 0.47 mPa·s
358.19 K, 50360 kPa	30.62 ± 0.64 mPa·s
358.19 K, 50380 kPa	30.63 ± 0.64 mPa·s
358.19 K, 50390 kPa	30.61 ± 0.64 mPa·s
358.19 K, 50400 kPa	30.65 ± 0.65 mPa·s
358.19 K, 50420 kPa	30.65 ± 0.65 mPa·s
358.19 K, 65540 kPa	38.26 ± 0.81 mPa·s
358.19 K, 65550 kPa	38.23 ± 0.81 mPa·s
358.19 K, 65570 kPa	38.28 ± 0.81 mPa·s
358.19 K, 65600 kPa	38.23 ± 0.81 mPa·s
358.19 K, 65610 kPa	38.23 ± 0.81 mPa·s
373.17 K, 1070 kPa	8.988 ± 0.19 mPa·s and 8.981 ± 0.19 mPa·s and 8.984 ± 0.19 mPa·s
373.17 K, 1080 kPa	8.99 ± 0.19 mPa·s
373.17 K, 2690 kPa	9.227 ± 0.2 mPa·s
373.17 K, 2720 kPa	9.242 ± 0.2 mPa·s
373.17 K, 2730 kPa	9.241 ± 0.2 mPa·s
373.17 K, 5100 kPa	9.651 ± 0.2 mPa·s
373.17 K, 5110 kPa	9.649 ± 0.2 mPa·s and 9.654 ± 0.2 mPa·s
373.17 K, 5120 kPa	9.651 ± 0.2 mPa·s
373.17 K, 5130 kPa	9.669 ± 0.2 mPa·s
373.17 K, 5140 kPa	9.653 ± 0.2 mPa·s
373.17 K, 7440 kPa	10.06 ± 0.21 mPa·s
373.17 K, 7470 kPa	10.05 ± 0.21 mPa·s
373.17 K, 7480 kPa	10.03 ± 0.21 mPa·s
373.17 K, 7500 kPa	10.03 ± 0.21 mPa·s
373.17 K, 10430 kPa	10.53 ± 0.22 mPa·s
373.17 K, 10450 kPa	10.57 ± 0.22 mPa·s
373.17 K, 15160 kPa	11.29 ± 0.24 mPa·s
373.17 K, 15180 kPa	11.28 ± 0.24 mPa·s
373.17 K, 15210 kPa	11.32 ± 0.24 mPa·s and 11.33 ± 0.24 mPa·s and 11.27 ± 0.24 mPa·s
373.17 K, 65290 kPa	23.71 ± 0.5 mPa·s
373.18 K, 2460 kPa	9.209 ± 0.19 mPa·s and 9.224 ± 0.19 mPa·s and 9.213 ± 0.19 mPa·s
373.18 K, 2470 kPa	9.234 ± 0.19 mPa·s
373.18 K, 2500 kPa	9.245 ± 0.2 mPa·s
373.18 K, 2710 kPa	9.252 ± 0.2 mPa·s
373.18 K, 10440 kPa	10.57 ± 0.22 mPa·s
373.18 K, 10450 kPa	10.52 ± 0.22 mPa·s
373.18 K, 10460 kPa	10.56 ± 0.22 mPa·s
373.18 K, 20250 kPa	12.27 ± 0.26 mPa·s and 12.26 ± 0.26 mPa·s
373.18 K, 20260 kPa	12.27 ± 0.26 mPa·s
373.18 K, 20270 kPa	12.29 ± 0.26 mPa·s
373.18 K, 20290 kPa	12.3 ± 0.3 mPa·s
373.18 K, 20320 kPa	12.28 ± 0.26 mPa·s
373.18 K, 29980 kPa	14.31 ± 0.3 mPa·s
373.18 K, 29990 kPa	14.32 ± 0.3 mPa·s
373.18 K, 30000 kPa	14.27 ± 0.3 mPa·s
373.18 K, 30010 kPa	14.3 ± 0.3 mPa·s
373.18 K, 30030 kPa	14.28 ± 0.3 mPa·s
373.18 K, 40130 kPa	16.58 ± 0.35 mPa·s
373.18 K, 40140 kPa	16.57 ± 0.35 mPa·s
373.18 K, 40150 kPa	16.63 ± 0.35 mPa·s
373.18 K, 40170 kPa	16.61 ± 0.35 mPa·s
373.18 K, 40190 kPa	16.64 ± 0.35 mPa·s
373.18 K, 50280 kPa	19.18 ± 0.4 mPa·s
373.18 K, 50290 kPa	19.21 ± 0.4 mPa·s and 19.23 ± 0.41 mPa·s
373.18 K, 50310 kPa	19.17 ± 0.4 mPa·s
373.18 K, 50320 kPa	19.23 ± 0.41 mPa·s
373.18 K, 65330 kPa	23.7 ± 0.5 mPa·s
373.18 K, 65350 kPa	23.72 ± 0.5 mPa·s
373.18 K, 65370 kPa	23.68 ± 0.5 mPa·s
